{"source": "patent US11028127B2", "about": "“Peptides capable of reactivating p53 mutants” (Yeda Research and Development Co. Ltd., priority 2013, dated 2021)", "system": "Mut-p53-expressing human cancer cell lines", "assay": "Crystal violet viability assay on further cell lines", "format": "cell-based", "conditions": "cell line not stated", "method": "Cells were cultured in 96 wells plates with 2500-4000 cells/well in 0.1 ml and incubated overnight at 37° C. in order to adhere to the plate. Serial dilutions of different peptides (0.5 μg/ml) were added in 0.1 ml aliquots and the plates incubated for additional 48 h at 37° C. Then medium was removed and cell lysis was determined by staining the cells with crystal violet (0.5%) in methanol/water (1:4, v/v), 50 μl each well, for 10 min, followed by 3 washes with PBS. Afterwards, 10% acetic acid (50 μl) was added to each well and shaken for 10 min. Then, automatic plate reading was performed at 595 nm.\nAn important indication for the reactivating peptides activity is their effect in-vivo on cancer cells that express Mut-p53. In particular, reactivating peptides that can cause specifically Mut-p53-dependent death of cancer cells, with minimal toxic effects on normal cells are desired. A crystal-violet based viability assay, in which crystal-violet is employed to stain cells that adhere to the plate and therefore the amount of dye is proportional to cell number was used to determine the effect of the various test peptides on Mut-p53-dependent death.\nCells were plated in 96-well plates, at calibrated density that allows them to grow for 48 hours without reaching confluence. Peptides are added 6 hours later. […]", "data": [{"sequence": "YRRLLIGMMWRRRRRRRRRRR [pCAP-68]", "values": [{"measurement": "effect on cell viability", "value": "massive cell death"}]}]}
